Data from patent US11873298B2, “Compounds and uses thereof” (JANSSEN PHARMACEUTICA NV, priority 2017, dated 2024).

Columns and labels:
Ole1 = target: T1, Ole1 (Saccharomyces cerevisiae, UniProt P21147); experiment: Growth inhibition of yeast strain expressing Ole1 as sole desaturase; type: cell-based; conditions: yeast strain expressing Ole1 as sole desaturase
T1 construct: expressed in transfected cells; host or cells: S. cerevisiae ole1Δ strain (W303 pdr1Δ pdr3Δ background), plasmid pRS316 with TDH3 promoter and CYC1 terminator
T1 sequence (P21147 1-510): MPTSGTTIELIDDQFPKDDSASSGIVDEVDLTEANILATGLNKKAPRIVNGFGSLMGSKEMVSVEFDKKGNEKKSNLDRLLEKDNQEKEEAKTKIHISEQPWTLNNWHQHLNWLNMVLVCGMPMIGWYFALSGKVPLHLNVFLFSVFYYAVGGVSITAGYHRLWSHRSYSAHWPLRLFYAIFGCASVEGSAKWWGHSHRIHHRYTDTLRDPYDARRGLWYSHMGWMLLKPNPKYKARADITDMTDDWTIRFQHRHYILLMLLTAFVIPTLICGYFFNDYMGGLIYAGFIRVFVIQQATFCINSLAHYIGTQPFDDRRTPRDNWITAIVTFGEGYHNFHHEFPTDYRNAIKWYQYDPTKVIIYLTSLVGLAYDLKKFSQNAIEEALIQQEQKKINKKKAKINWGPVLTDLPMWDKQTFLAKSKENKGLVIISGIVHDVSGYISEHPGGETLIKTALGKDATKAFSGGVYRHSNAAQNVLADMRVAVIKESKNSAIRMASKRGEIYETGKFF
Summary of the method: (§1)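 Yeast ole1Δ strain (W303 pdr1Δ pdr3Δ background) carrying plasmid-borne Ole1, SCD1 or SCD5 as sole desaturase was grown in uracil-lacking media, pre-cultured in raffinose for 6 h, then seeded in galactose medium with compound in DMSO. Growth was read as OD600 after 30° C. incubation: 24 h for Ole1, 40 h for SCD1/SCD5.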

SCD1 = target: T2, SCD1 (Homo sapiens, UniProt O00767); experiment: Growth inhibition of humanized yeast strain expressing SCD1 as sole desaturase; type: cell-based; conditions: humanized yeast strain expressing SCD1
T2 construct: host or cells: S. cerevisiae ole1Δ strain (W303 pdr1Δ pdr3Δ background), plasmid pRS316 with TDH3 promoter and CYC1 terminator
T2 sequence (O00767 1-359): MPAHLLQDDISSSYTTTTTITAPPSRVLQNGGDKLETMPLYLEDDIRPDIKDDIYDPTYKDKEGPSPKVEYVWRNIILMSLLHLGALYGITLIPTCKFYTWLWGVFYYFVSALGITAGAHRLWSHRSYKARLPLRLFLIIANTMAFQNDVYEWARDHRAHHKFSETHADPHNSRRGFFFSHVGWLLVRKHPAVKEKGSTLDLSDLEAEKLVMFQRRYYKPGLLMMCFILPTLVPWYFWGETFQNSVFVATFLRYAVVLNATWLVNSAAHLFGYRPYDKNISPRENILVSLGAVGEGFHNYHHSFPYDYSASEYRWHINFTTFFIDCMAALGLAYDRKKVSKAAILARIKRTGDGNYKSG
Summary of the method: as §1

SCD5 = target: T3, SCD5 (Homo sapiens, UniProt Q86SK9); experiment: Growth inhibition of humanized yeast strain expressing SCD5 as sole desaturase; type: cell-based; conditions: humanized yeast strain expressing SCD5
T3 construct: host or cells: S. cerevisiae ole1Δ strain (W303 pdr1Δ pdr3Δ background), plasmid pRS316 with TDH3 promoter and CYC1 terminator
T3 sequence (Q86SK9 1-330): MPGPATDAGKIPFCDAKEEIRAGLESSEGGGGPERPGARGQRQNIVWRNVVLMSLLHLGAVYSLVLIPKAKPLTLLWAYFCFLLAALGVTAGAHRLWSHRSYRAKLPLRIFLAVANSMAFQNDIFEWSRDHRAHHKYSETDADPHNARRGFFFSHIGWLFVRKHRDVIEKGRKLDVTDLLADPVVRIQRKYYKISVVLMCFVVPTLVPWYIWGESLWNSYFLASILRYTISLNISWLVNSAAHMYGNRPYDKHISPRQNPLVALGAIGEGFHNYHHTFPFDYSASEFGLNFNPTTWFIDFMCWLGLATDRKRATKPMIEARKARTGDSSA
Summary of the method: as §1

[1] = tested on: yeast strains expressing the human α-synuclein; experiment: Yeast α-synuclein toxicity rescue assay (OD600 growth); conditions: 40 h; for EC50: read-out: α-Syn EC50; for Emax: read-out: α-Syn Emax

Compound | IC50 (Ole1) [µM] | OLE1 % Max Inhibition (Ole1) [%] | IC50 (SCD1) [µM] | SCD1 % Max Inhibition (SCD1) [%] | IC50 (SCD5) [µM] | SCD5 % Max Inhibition (SCD5) [%] | EC50 [1] [µM] | Emax [1] [%]
Cc1nn(C)c2cc(-c3noc(C4CCN(C(=O)[C@@H]5CN(c6ccccc6)C(=O)O5)CC4)n3)ccc12 [Compound 149] | > 45 | 90.68 | > 45 | 69.75 | > 45 | 38.72 | 0.06 | 458
CCOc1ccc(-c2noc(N3CCC(C(=O)N4CCOC(c5ccccc5)C4)CC3)n2)cc1OC (centres unmarked) [Compound 112] | > 45 | 3.16 | > 45 | 66.76 | > 45 | 21.21 | 0.32 | 258
Cc1nn(C)c2cc(-c3noc(C4CCN(C(=O)C5CC(=O)N(c6ccc(C#N)cc6)C5)CC4)n3)ccc12 (centres unmarked) [Compound 139] | > 45 | 25.30 | > 45 | 87.50 | > 45 | 75.11 | 0.021 | 437
CCOc1ccc(-c2noc(C3CCN(C(=O)C4CC(=O)N(c5ccccc5)C4)CC3)n2)nc1OC (centres unmarked) [Compound 108] | > 45 | 72.04 | > 45 | 72.79 | > 45 | 64.66 | 11.1 | 316
Cc1nn(C)c2cc(-c3noc(C4CCN(C(=O)C5CC(=O)N(c6ccccc6)C5)CC4)n3)ncc12 (centres unmarked) [Compound 120] | > 45 | 119.08 | > 45 | 99.80 | > 45 | 96.39 | 19.5 | 139
COc1ccc(C(=O)NCC(=O)N2CCC(c3nc(-c4ccc5c(C)nn(C)c5c4)no3)CC2)nc1 [Compound 151] | > 45 | 2.67 | > 45 | 75.63 | > 45 | 20.68 | 0.045 | 405
CCOc1ncc(-c2noc(C3CCN(C(=O)C4CC(=O)N(c5ccccc5)C4)CC3)n2)cc1OC (centres unmarked) [Compound 130] | > 45 | 2.75 | > 45 | 97.82 | > 45 | 99.82 | 1.44 | 328
CCOc1ncc(-c2noc(C3CCN(C(=O)CN4Cc5ccccc5C4=O)CC3)n2)cc1OC [Compound 131] | 25.8 | 39.81 | > 45 | 96.48 | > 45 | 98.92 | 0.167 | 352
COc1ccnc(C(=O)NCC(=O)N2CCC(c3nc(-c4ccc5c(C)nn(C)c5c4)no3)CC2)c1 [Compound 150] | > 45 | 5.16 | > 45 | 74.48 | > 45 | 86.15 | 0.099 | 473
Cn1ncc2ccc(-c3noc(C4CCN(C(=O)CNC(=O)c5ccccc5)CC4)n3)cc21 [compound 94] | > 45 | – | > 45 | – | 39.3 | – | 0.04 | –
CCN1CCOc2cc(-c3noc(C4CCN(C(=O)CNC(=O)c5ccccc5)CC4)n3)ccc21 [Compound 110] | > 45 | 96.31 | > 45 | 66.85 | > 45 | 65.07 | 4.49 | 374
Cc1nn(C)c2nc(-c3noc(C4CCN(C(=O)CN5Cc6ccccc6C5=O)CC4)n3)ccc12 [Compound 146] | > 45 | 3.28 | 37.8 | 60.81 | > 45 | 25.62 | 1.94 | 516
